Measurements: patent US20260000678A1, “PHARMACEUTICAL COMPOSITION FOR PREVENTING, SUPPRESSING, OR TREATING SYMPTOM ASSOCIATED WITH PSEUDO-ALLERGIC REACTION” (Takasaki University of Health and Welfare, priority 2022, published 2026)
“Also recorded” adds a separate entry of the source. Each block holds one molecule with its values, some of them ahead of it.

Legend:
PMCs = assay: Degranulation of PMCs (β-hexosaminidase release rate); type: cell-based, mouse; conditions: for Degranulation of PMCs by the stimulant alone: 37° C. 10 minutes, DNP-HSA on IgE-sensitized PMCs, BzATP 10 uM; for Effect on IgE receptor stimulation or degranulation by C48/80: α,β-methyl mATP 10 uM, ADP 100 uM, UDP-Glucose 100 uM
wild-type C57BL/6 mice = assay: Passive systemic anaphylaxis caused by C48/80 (rectal temperature); type: in vivo, mouse; conditions: 10 mg/kg intraperitoneally 15 minutes before C48/80 (50 μg i.v.); vs vehicle; listed as Compound B
Method: Wild-type C57BL/6 mice (9-week-old, male; n=8) and P2X4 receptor-deficient mice (10-week-old, male; n=7) were intravenously administered with 100 μL of physiological saline containing 50 μg of C48/80 (manufactured by Sigma-Aldrich, Inc.). Thereafter, the rectal temperatures of the mice were measured with a digital thermometer (manufactured by Physitemp Instruments, LLC.) every 5 minutes for a period of 60 minutes.
Compound B, a P2X4 receptor antagonist, was used after being dissolved in physiological saline at a concentration of 10 mg/ml. In a passive systemic anaphylaxis test using the wild-type C57BL/6 mice of Example 1-1), 10 mg/kg of Compound B or a solvent thereof (vehicle) was intraperitoneally administered 15 minutes before administration of C48/80. […] From this, it was considered that the symptom of the pseudo-allergy can be reduced by the P2X4 receptor antagonist.

[1] = tested on: PMCs derived from P2X4 receptor-deficient mice; assay: Degranulation of PMCs derived from P2X4 receptor-deficient mice; type: cell-based, mouse; conditions: DNP-HSA or C48/80 stimulation with 100 uM ATP
Method: The abdominal cavity of wild-type C57BL/6 mice (7- to 8-week-old, male; n=4) or P2X4 receptor-deficient mice (7- to 8-week-old, male; n=4) was washed with 4 mL of RPMI1640 medium to prepare peritoneal cells. The cells were cultured in RPMI1640 medium containing 10% FBS, penicillin (100 unit/ml), streptomycin (100 μg/ml), recombinant mouse IL-3 (10 ng/ml, manufactured by PeproTech, Inc.), and 10 ng/mL of SCF (manufactured by PeproTech, Inc.) for 14 days to be used for the experiment. 95% or more of the prepared PMCs were double positive for c-KIT and FcεRI (FACSCant II, manufactured by BD Biosciences).
Anti-DNP-IgE antibody (clone: SPE-7, manufactured by Sigma-Aldrich, Inc.) was added to a culture solution containing PMCs derived from wild-type C57BL/6 mice or P2X4 receptor-deficient mice so that the concentration reached 50 ng/ml, and the PMCs were sensitized overnight. The PMCs were washed with PBS(−) and suspended in Krebs Ringer-HEPES Buffer containing 0.1% BSA (NaCl 130 mM, KCl 4.7 mM, NaHCO3 4.0 mM, KH2P4 1.2 mM, Glucose 11.5 mM, HEPES 10 mM, and CaCl2—H2O 1.8 mM) so that the concentration reached 1×10^6 cell/mL. […] 50 mM carbonate buffer (pH 10.0, 100 uL) was added to stop the enzyme reaction of β-hexosaminidase, and absorbance was measured at 405/655 nm using an absorbance microplate reader Sunrise (manufactured by Tecan Trading AG). […]

[2] = wild-type PMCs, C48/80 10 uM, Substance P 100 uM, PAMP-12 10 uM, vancomycin 1 mM
[3] = dose dependency, DNP-HSA 0, 1, 5, or 10 μg/mL

Molecule: Substance P
Degranulation of PMCs by the stimulant alone (PMCs; [2]): induced

Molecule: O=C1CC(=O)N(c2ccc(NC(=O)c3ccccc3I)cc2)c2ccc3ccccc3c2N1 [Compound B48, 5-[4-(2-iodobenzoylamino)phenyl]-1H-naphtho[1,2-b][1,4]diazepine-2,4(3H,5H)-dione]
Suppression of the decrease in rectal temperature by C48/80 (wild-type C57BL/6 mice): significantly suppressed
Suppression of the promotion of degranulation of PMCs by ATP (PMCs; Compound at 10 uM before the degranulation reaction, C48/80 10 uM with or without 100 uM ATP, vs vehicle, listed as Compound B): significantly suppressed

Molecule: CN[C@H](CC(C)C)C(=O)N[C@H]1C(=O)N[C@@H](CC(N)=O)C(=O)N[C@H]2C(=O)N[C@H]3C(=O)N[C@H](C(=O)N[C@H](C(=O)O)c4cc(O)cc(O)c4-c4cc3ccc4O)[C@H](O)c3ccc(c(Cl)c3)Oc3cc2cc(c3O[C@@H]2O[C@H](CO)[C@@H](O)[C@H](O)[C@H]2O[C@H]2C[C@](C)(N)[C@H](O)[C@H](C)O2)Oc2ccc(cc2Cl)[C@H]1O [vancomycin]
Degranulation of PMCs by the stimulant alone (PMCs; [2]): induced

Molecule: BzATP
Degranulation of PMCs by the stimulant alone (PMCs; [2]): induced degranulation

Effect on IgE receptor stimulation or degranulation by C48/80 (PMCs): did not affect
Molecule: Nc1ncnc2c1ncn2[C@@H]1O[C@H](COP(=O)(O)CP(=O)(O)OP(=O)(O)O)[C@@H](O)[C@H]1O [α,β-methyl mATP]

Effect of ATP on degranulation of PMCs by MrgprB2 stimulation with C48/80 (PMCs; 100 uM ATP, C48/80 10 uM, wild-type PMCs): significantly promoted
Effect of ATP on degranulation of PMCs by Substance P, PAMP-12 and vancomycin (PMCs; Substance P 100 uM, PAMP-12 10 uM, vancomycin 1 mM): promoted; also recorded: enhanced
Effect of ATP on degranulation by IgE receptor stimulation, DNP-HSA at a high concentration (PMCs; [3]): not observed
Effect of ATP on degranulation by IgE receptor stimulation, DNP-HSA at a low concentration (PMCs; [3]): promoted degranulation
Effect of promoting degranulation of ATP in P2X4 receptor-deficient PMCs [1]: not observed
Molecule: Nc1ncnc2c1ncn2[C@@H]1O[C@H](COP(=O)(O)OP(=O)(O)OP(=O)(O)O)[C@@H](O)[C@H]1O [ATP]
Effect of ATP on degranulation of PMCs by IgE receptor stimulation (DNP-HSA) (PMCs; 100 uM ATP, IgE (SPE-7)-sensitized wild-type PMCs): significantly promoted
Effect of ATP on dose dependency of degranulation by MrgprB2 stimulation with C48/80 (PMCs; C48/80 0, 1, 10, or 100 uM): enhanced the maximum response; also recorded: significantly increased the degree of degranulation

Effect on IgE receptor stimulation or degranulation by C48/80 (PMCs): did not affect
Molecule: Nc1ncnc2c1ncn2[C@@H]1O[C@H](COP(=O)(O)OP(=O)(O)O)[C@@H](O)[C@H]1O [ADP]

Molecule: Proadrenomedullin N-terminal 20 peptide [PAMP-12]
Degranulation of PMCs by the stimulant alone (PMCs; [2]): induced
